These results are taken from patent US20200222400A1, “METHODS FOR THE TREATMENT OF NEUROLOGICAL DISORDERS” (Yumanity Therapeutics, Inc., priority 2019, published 2020).

One test deals with T1, human SCD1 (Homo sapiens, UniProt O00767).
T1 construct: host or cells: S. cerevisiae ole1Δ strain (W303 pdr1Δ pdr3Δ background), pRS316 plasmid, TDH3 promoter
T1 sequence (O00767 1-359): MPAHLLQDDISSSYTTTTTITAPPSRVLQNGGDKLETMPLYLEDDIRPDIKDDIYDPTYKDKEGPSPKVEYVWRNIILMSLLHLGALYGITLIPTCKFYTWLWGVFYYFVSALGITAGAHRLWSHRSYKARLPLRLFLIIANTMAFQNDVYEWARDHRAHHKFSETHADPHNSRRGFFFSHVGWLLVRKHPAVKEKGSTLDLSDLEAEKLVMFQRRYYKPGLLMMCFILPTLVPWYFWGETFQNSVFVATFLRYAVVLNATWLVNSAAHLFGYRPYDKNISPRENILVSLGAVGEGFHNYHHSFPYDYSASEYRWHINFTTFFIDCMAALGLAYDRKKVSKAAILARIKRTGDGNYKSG
Put plainly: Growth of humanized yeast expressing human SCD1 as sole desaturase. The conditions noted are these: yeast growth. It is filed as cell-based, humanized yeastized yeastized yeastized yeast. Here is the method:
The coding sequence of yeast OLE1 was also cloned into this plasmid). These clones were then transformed into the ole1Δ strain and plated on CSM-Ura media (CSM lacking uracil) with 2% glucose (w/v) and independent colonies were isolated and amplified.
(§1) All compound profiling experiments were performed using the same basic protocol. Different genetic backgrounds (e.g., gene deletions) or conditions (e.g., addition of oleic and palmitoleic acid) were replaced as indicated below.
Compound administration was performed in two separate steps. First, 15 μL of CSM-Galactose (induces expression of toxic protein) was dispensed into clear 384 well assay plates using a MULTIDROP™ Combi reagent dispenser. […] The cultures described above were then diluted to a 2× concentration (0.03 and 0.08 for alpha-synuclein and ApoE, final OD600 of 0.015 and 0.04) in CSM-Galactose. For wild-type and Ole1/SCD1/SCD5 plasmid-containing strains, the 2× cell density was 0.02.
(§2) For experiments using a plasmid-borne copy of Ole1, SCD1, or SCD5 (FIGS. 4B, 7, and 8), media lacking uracil (SX-Ura, where X is glucose, raffinose, or galactose), was used for all steps of the compound profiling protocol to ensure its maintenance throughout the assay.
After yeast delivery, assay plates were incubated under humidified conditions at 30° C. for 24 to 40 h. ApoE4 rescue experiments were stopped at 24 h, aSyn experiments at 40 h, Ole1 at 24 h, and SCD1/SCD5 at 40 h. The growth of yeast was monitored by reading the OD600 of each well using a microplate reader (Perkin Elmer EnVision™).

Another test addresses T2, human SCD5 (Homo sapiens, UniProt Q86SK9).
T2 construct: host or cells: S. cerevisiae ole1Δ strain (W303 pdr1Δ pdr3Δ background), pRS316 plasmid, TDH3 promoter
T2 sequence (Q86SK9 1-330): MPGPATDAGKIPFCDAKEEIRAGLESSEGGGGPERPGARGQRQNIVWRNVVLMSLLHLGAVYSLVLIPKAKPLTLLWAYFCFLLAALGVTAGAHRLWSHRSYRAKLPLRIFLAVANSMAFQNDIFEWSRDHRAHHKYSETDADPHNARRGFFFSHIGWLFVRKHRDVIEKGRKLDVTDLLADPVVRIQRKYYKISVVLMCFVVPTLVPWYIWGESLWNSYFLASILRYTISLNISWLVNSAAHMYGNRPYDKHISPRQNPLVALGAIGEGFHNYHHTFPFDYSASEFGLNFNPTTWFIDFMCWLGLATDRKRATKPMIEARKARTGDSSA
In words: Growth of humanized yeast expressing human SCD5 as sole desaturase. It is filed as cell-based, Saccharomyces cerevisiae expressing Saccharomyces cerevisiae expressing Saccharomyces cerevisiae expressing Saccharomyces cerevisiae expressing Saccharomyces cerevisiae expressing human SCD5 SCD5 SCD5 SCD5 SCD5. The conditions noted are these: yeast growth.
Text: To generate yeast strains expressing SCD1 or SCD5 as the sole desaturase, the human SCD1 and SCD5 genes were cloned from cDNAs (Harvard PlasmID database Clone ID HsCD00340237 for SCD1 and HsCD00342695 for SCD5) into yeast plasmid pRS316 (ATCC 77145) between the yeast TDH3 promoter and the CYC1 terminator. The coding sequence of yeast OLE1 was also cloned into this plasmid). These clones were then transformed into the ole1Δ strain and plated on CSM-Ura media (CSM lacking uracil) with 2% glucose (w/v) and independent colonies were isolated and amplified.
as §1
Compound stocks (10 mM in 100% DMSO) were arrayed into 384 round well, v-bottom polypropylene plates and diluted according to indicated dilution factors. Compound administration was performed in two separate steps. First, 15 μL of CSM-Galactose (induces expression of toxic protein) was dispensed into clear 384 well assay plates using a MULTIDROP™ Combi reagent dispenser. The diluted compound stock plates were then applied to the assay plates using an automated workstation (Perkin Elmer JANUS™) outfitted with a 384 pin tool containing slotted pins that deliver 100 nL of compound. The cultures described above were then diluted to a 2× concentration (0.03 and 0.08 for alpha-synuclein and ApoE, final OD600 of 0.015 and 0.04) in CSM-Galactose. For wild-type and Ole1/SCD1/SCD5 plasmid-containing strains, the 2× cell density was 0.02. In all experiments, 15 μL culture was then dispensed into the pinned assay plate to achieve 30 μL of the 1×OD600 culture and a top drug concentration of […]. For 96-well assays (FIGS. 2A and 2B), compound dilutions in DMSO were generated in 96 well plates and 1 μL was manually pipetted into 96 well clear bottom assay plates.
as §2
After yeast delivery, assay plates were incubated under humidified conditions at 30° C. for 24 to 40 h. ApoE4 rescue experiments were stopped at 24 h, aSyn experiments at 40 h, Ole1 at 24 h, and SCD1/SCD5 at 40 h. The growth of yeast was monitored by reading the OD600 of each well using a microplate reader (Perkin Elmer EnVision™). For model rescue experiments, raw data were processed by background subtracting and calculating a fold-change relative to DMSO control [(EXP−0.035)/(DMSO−0.035)—where 0.035 is the OD600 contributed by an empty well containing 30 μL of media alone]. For growth inhibition of wild-type cells, raw data were processed by background subtracting and converting values to a percent of the nontreated condition for that strain [(EXP−0.035)/(DMSO−0.035)×100%].

With `Cc1nnc(-c2ccc(N3CCC(Oc4cc(F)ccc4Cl)CC3)nn2)o1` [CAY10566], the “half-maximal inhibitory concentration (IC50), SCD1 humanized strain” value at human SCD1 is recorded as “low nanomolar”. Also, the “half-maximal inhibitory concentration (IC50), SCD5 humanized strain” value at human SCD5 is given as “low nanomolar”.
